Converted amounts (≈) assume the structure as drawn.
Columns and labels:
[1] = Clearance in Sprague-Dawley rat at 10 mg/kg, po; assay type: ADME, organism-based; parameters: dose 10 mg/kg, route oral; settings: in vivo
[2] = Lipophilicity, change in log P of the compound; settings: octanol/water
[3] = Oral bioavailability in Sprague-Dawley rat at 10 mg/kg; assay type: ADME, organism-based; settings: in vivo
[4] = Clearance in human liver microsomes at 3 uM by LC/MS/MS analysis; assay type: ADME
[5] = molecular target: T1, Tyrosine-protein kinase SYK (Homo sapiens, UniProt P43405)
Description: Inhibition of Syk in antihuman IgM-stimulated human Ramos cells assessed as decrease in BCR-mediated BLNK phosphorylation by cellular assay

[6] = molecular target: T1, Tyrosine-protein kinase SYK; remark: listed apart in the source
Description: Inhibition of full length Syk (unknown origin) using biotinylated peptide substrate

[7] = molecular target: T1, Tyrosine-protein kinase SYK; remark: listed apart in the source
Description: Inhibition of Syk in goat antihuman IgE-induced CD63 expression in human whole blood by FACS analysis

[8] = molecular target: Vascular endothelial growth factor receptor 2 (Homo sapiens, UniProt P35968); experiment: Inhibition of KDR in VEGF-stimulated HUVEC assessed as phosphorylation after 1 hr incubation
[9] = molecular target: T2, Cytochrome P450 1A2 (Homo sapiens, UniProt P05177); experiment: Inhibition of CYP1A2 (unknown origin); assay type: ADME
T2 sequence (P05177 whole entry): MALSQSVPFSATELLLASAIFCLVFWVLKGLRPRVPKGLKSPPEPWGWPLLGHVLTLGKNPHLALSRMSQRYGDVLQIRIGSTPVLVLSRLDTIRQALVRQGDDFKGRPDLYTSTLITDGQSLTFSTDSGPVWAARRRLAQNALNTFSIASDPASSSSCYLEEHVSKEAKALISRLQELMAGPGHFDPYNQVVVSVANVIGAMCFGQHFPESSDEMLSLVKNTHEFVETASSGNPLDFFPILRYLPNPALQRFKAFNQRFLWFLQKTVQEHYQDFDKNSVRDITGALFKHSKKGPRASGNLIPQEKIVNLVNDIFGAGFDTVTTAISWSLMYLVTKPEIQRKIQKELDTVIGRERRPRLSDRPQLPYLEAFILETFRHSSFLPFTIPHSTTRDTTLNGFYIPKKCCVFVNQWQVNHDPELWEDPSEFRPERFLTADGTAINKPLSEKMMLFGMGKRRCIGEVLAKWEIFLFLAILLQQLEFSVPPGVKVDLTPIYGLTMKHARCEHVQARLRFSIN

[10] = Half life in rat liver microsomes at 3 uM by LC/MS/MS analysis; assay type: ADME
[11] = molecular target: Tyrosine-protein kinase SYK (Rattus norvegicus, UniProt Q64725); experiment: In vitro inhibition of Syk phosphorylation in rat whole blood; assay type: tissue-based
[12] = Oral bioavailability in non-naive beagle dog at 1 mg/kg; assay type: ADME, organism-based, Canis lupus familiaris; settings: in vivo
[13] = molecular target: Cytochrome P450 2C9 (Homo sapiens, UniProt P11712); experiment: Inhibition of CYP2C9 (unknown origin); assay type: ADME
[14] = tested on: Rattus norvegicus; experiment: Antiinflammatory activity in po dosed Lewis rat collagen-induced arthritis model assessed as disease parameter measured as peritosteal bone width treated twice daily on arthritic days 0 to 7 by histological analysis
[15] = Solubility of the compound in crystalline form in simulated intestinal fluid under fasted condition; assay type: physicochemical
[16] = tested on: Rattus norvegicus; experiment: Antiinflammatory activity in po dosed Lewis rat collagen-induced arthritis model assessed as disease parameter measured as body weight treated twice daily on arthritic days 0 to 7
[17] = molecular target: Cytochrome P450 2C19 (Homo sapiens, UniProt P33261); experiment: Inhibition of CYP2C19 (unknown origin); assay type: ADME
[18] = Half life in dog liver microsomes at 3 uM by LC/MS/MS analysis; assay type: ADME, Canis lupus familiaris
[19] = Plasma protein binding in non-naive beagle dog at 1 mg/kg, po after 24 hrs by LC-MS/MS analysis; assay type: ADME, organism-based, Canis lupus familiaris; parameters: dose 1 mg/kg, route oral; settings: read-out: PPB (converted)
[20] = Volume of distribution at steady state in non-naive beagle dog at 0.4 mg/kg, iv; assay type: ADME, organism-based, Canis lupus familiaris; parameters: dose 0.4 mg/kg, route intravenous; settings: in vivo, read-out: Vdss
[21] = Unbound fraction in human plasma; assay type: ADME, cell-free
[22] = Plasma protein binding in Sprague-Dawley rat at 1 mg/kg, po after 24 hrs by LC-MS/MS analysis; assay type: ADME, organism-based; parameters: dose 1 mg/kg, route oral; settings: read-out: PPB (converted)
[23] = tested on: Rattus norvegicus; experiment: Antiinflammatory activity in po dosed Lewis rat collagen-induced arthritis model assessed as disease parameter measured as ankle diameter treated twice daily on arthritic days 0 to 7
[24] = Oral bioavailability in Sprague-Dawley rat at 1 mg/kg; assay type: ADME, organism-based; settings: in vivo
[25] = Apparent permeability from basolateral to apical side in human Caco2 cells at 5 uM; assay type: ADME, cell-based; settings: Caco-2
[26] = Plasma protein binding in human at 1 mg/kg, po after 24 hrs by LC-MS/MS analysis; assay type: ADME, organism-based; parameters: dose 1 mg/kg, route oral; settings: read-out: PPB (converted)
[27] = Apparent permeability from apical to basolateral side in human Caco2 cells at 5 uM; assay type: ADME, cell-based; settings: Caco-2
[28] = tested on: Rattus norvegicus; experiment: Antiinflammatory activity in po dosed Lewis rat collagen-induced arthritis model assessed as disease parameter measured as knee inflammation treated twice daily on arthritic days 0 to 7 by histological analysis
[29] = Half life in human liver microsomes at 3 uM by LC/MS/MS analysis; assay type: ADME
[30] = molecular target: Tyrosine-protein kinase JAK2 (Homo sapiens, UniProt O60674); experiment: Inhibition of Jak2 in erythropoietin-stimulated human TF1 cells assessed as assessed as phospho-Stat5 after 1 hr incubation; assay type: cell-based, TF-1
[31] = Clearance in Sprague-Dawley rat at 0.4 mg/kg, iv; assay type: ADME, organism-based; parameters: dose 0.4 mg/kg, route intravenous; settings: in vivo
[32] = molecular target: Proto-oncogene tyrosine-protein kinase receptor Ret (Homo sapiens, UniProt P07949); experiment: Inhibition of Ret in human […] cells assessed as assessed as phosphorylation after 1 hr incubation; assay type: cell-based
[33] = tested on: Rattus norvegicus; experiment: Antiinflammatory activity in po dosed Lewis rat collagen-induced arthritis model assessed as disease parameter measured as ankle inflammation treated twice daily on arthritic days 0 to 7 by histological analysis
[34] = molecular target: Cytochrome P450 2D6 (Homo sapiens, UniProt P10635); experiment: Inhibition of CYP2D6 (unknown origin); assay type: ADME
[35] = Solubility of the compound in crystalline form in simulated intestinal fluid under fed condition; assay type: physicochemical
[36] = Clearance in non-naive beagle dog at 0.4 mg/kg, iv; assay type: ADME, organism-based, Canis lupus familiaris; parameters: dose 0.4 mg/kg, route intravenous; settings: in vivo
[37] = molecular target: Mast/stem cell growth factor receptor Kit (Mus musculus, UniProt P05532); experiment: Inhibition of cKit in stem cell factor-stimulated bone marrow derived mouse mast cells assessed as phosphorylation after 1 hr incubation
[38] = Volume of distribution at steady state in Sprague-Dawley rat at 0.4 mg/kg, iv; assay type: ADME, organism-based; parameters: dose 0.4 mg/kg, route intravenous; settings: in vivo, read-out: Vdss

Chain of Mast/stem cell growth factor receptor Kit (P05532 whole entry): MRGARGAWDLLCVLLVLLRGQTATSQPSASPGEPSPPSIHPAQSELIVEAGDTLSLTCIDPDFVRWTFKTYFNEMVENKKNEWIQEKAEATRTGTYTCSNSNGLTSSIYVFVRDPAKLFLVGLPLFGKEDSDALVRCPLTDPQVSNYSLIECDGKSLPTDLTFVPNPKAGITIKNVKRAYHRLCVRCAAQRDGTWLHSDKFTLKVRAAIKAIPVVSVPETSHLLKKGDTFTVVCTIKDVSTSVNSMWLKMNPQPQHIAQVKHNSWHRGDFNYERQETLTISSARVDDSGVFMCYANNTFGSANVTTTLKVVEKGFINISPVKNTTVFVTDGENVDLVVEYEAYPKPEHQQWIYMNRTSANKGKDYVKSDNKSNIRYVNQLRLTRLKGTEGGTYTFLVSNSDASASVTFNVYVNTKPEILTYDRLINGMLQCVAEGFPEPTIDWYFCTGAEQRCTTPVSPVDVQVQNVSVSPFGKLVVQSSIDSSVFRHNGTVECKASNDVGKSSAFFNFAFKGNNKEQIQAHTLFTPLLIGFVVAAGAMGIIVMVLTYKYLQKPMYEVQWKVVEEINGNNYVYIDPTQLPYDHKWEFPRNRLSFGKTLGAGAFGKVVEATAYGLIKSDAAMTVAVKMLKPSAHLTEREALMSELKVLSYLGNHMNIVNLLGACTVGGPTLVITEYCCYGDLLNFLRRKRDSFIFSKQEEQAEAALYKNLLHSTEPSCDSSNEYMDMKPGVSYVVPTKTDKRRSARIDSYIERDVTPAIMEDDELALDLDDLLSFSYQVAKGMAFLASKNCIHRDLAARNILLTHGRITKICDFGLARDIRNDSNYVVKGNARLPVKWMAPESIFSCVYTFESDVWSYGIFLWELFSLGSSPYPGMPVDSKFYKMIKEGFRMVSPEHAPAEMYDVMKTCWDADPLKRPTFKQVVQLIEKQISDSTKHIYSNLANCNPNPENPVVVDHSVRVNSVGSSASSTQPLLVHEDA
Chain of Tyrosine-protein kinase JAK2 (O60674 whole entry): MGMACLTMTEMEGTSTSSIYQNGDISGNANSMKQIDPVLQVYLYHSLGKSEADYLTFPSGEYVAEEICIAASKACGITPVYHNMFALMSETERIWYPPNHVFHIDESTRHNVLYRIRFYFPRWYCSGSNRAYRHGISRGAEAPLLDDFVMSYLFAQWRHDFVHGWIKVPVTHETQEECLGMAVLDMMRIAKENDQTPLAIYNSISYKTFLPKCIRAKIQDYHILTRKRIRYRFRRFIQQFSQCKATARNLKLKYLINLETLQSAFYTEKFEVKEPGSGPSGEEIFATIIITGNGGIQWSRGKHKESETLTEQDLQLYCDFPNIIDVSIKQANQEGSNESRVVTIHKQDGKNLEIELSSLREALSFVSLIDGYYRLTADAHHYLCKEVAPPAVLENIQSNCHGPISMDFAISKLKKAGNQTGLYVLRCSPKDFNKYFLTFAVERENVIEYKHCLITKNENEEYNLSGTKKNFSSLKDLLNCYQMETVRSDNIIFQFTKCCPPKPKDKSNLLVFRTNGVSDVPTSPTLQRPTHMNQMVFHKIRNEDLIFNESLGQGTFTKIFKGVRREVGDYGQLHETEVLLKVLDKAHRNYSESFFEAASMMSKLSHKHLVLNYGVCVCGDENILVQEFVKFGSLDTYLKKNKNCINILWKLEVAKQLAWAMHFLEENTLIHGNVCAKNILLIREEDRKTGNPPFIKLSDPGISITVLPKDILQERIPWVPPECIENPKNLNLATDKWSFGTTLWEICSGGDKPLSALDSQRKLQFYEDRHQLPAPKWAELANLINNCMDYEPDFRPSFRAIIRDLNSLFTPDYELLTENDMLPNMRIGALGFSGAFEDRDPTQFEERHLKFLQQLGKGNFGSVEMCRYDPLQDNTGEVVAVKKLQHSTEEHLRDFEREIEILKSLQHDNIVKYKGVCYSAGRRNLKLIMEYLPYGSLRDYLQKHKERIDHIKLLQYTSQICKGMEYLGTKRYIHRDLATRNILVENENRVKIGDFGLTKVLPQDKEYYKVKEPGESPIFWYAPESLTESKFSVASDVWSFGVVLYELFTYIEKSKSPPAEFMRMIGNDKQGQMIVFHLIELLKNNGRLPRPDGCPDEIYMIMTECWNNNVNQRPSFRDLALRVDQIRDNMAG
Chain of Proto-oncogene tyrosine-protein kinase receptor Ret (P07949 whole entry): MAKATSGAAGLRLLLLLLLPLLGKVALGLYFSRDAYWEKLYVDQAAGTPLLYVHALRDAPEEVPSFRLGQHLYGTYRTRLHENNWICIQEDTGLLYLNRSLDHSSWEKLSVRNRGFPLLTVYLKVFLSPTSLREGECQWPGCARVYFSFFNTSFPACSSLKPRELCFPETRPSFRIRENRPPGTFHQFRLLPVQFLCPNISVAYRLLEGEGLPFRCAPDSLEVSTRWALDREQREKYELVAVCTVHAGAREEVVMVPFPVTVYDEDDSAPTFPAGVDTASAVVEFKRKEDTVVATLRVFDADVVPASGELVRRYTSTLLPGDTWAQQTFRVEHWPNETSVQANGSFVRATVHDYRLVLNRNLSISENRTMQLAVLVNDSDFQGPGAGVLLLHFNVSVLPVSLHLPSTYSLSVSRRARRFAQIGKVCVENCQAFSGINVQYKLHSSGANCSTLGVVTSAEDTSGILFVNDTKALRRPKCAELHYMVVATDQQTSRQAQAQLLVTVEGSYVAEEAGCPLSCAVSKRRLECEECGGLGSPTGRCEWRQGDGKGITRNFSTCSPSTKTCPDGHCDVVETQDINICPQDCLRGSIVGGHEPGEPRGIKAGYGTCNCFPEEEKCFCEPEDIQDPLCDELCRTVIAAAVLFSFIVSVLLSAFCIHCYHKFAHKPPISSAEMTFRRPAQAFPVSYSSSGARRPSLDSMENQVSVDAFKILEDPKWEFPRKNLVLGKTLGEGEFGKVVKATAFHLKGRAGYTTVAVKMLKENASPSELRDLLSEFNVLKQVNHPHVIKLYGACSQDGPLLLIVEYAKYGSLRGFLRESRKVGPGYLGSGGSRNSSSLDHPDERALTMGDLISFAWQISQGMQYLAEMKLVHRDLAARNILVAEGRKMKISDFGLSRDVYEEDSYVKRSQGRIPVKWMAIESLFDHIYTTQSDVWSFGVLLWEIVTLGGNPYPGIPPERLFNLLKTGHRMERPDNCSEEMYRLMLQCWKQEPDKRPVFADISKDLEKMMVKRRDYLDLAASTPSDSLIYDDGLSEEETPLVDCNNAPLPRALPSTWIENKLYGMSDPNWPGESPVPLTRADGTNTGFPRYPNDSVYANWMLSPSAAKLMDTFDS
Chain of Cytochrome P450 2D6 (P10635 whole entry): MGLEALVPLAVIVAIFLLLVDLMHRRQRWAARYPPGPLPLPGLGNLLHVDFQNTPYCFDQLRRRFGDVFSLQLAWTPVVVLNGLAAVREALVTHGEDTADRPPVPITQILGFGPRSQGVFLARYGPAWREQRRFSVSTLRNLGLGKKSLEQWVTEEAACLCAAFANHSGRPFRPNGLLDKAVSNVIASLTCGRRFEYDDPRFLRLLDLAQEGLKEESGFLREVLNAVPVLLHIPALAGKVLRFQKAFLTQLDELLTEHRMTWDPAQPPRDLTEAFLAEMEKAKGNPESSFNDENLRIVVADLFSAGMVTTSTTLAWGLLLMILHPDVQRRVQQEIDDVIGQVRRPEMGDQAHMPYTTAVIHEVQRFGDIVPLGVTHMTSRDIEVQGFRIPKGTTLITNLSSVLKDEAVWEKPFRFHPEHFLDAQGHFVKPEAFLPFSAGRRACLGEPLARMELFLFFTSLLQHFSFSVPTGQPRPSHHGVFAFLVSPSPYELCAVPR
Chain of Cytochrome P450 2C9 (P11712 whole entry): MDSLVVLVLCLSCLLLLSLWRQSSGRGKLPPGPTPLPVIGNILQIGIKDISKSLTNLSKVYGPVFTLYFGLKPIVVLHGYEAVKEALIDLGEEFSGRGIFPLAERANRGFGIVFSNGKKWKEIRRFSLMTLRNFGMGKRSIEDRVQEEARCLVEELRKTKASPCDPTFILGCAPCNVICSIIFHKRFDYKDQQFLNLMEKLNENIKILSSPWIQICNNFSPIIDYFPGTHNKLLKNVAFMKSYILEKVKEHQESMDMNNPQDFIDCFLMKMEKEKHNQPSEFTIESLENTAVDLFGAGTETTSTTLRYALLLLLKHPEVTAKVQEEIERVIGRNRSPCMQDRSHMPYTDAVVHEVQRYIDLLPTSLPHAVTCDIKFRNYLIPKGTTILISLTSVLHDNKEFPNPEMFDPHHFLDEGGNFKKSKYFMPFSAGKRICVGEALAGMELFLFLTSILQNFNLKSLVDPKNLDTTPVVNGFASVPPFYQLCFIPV
Chain of Cytochrome P450 2C19 (P33261 whole entry): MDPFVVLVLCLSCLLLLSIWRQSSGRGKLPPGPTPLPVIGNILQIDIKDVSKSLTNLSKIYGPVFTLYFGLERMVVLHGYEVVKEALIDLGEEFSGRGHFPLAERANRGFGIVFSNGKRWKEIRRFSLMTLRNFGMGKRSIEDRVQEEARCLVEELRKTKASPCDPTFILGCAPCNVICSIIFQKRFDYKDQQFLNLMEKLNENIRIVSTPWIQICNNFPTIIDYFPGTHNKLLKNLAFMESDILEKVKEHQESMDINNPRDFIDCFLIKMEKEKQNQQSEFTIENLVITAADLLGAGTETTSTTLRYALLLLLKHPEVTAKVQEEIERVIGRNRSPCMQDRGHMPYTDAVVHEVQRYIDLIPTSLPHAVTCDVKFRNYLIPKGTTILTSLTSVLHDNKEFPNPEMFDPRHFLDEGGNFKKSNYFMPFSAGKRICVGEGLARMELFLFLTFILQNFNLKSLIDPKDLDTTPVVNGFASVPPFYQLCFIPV

## COc1ccc(Nc2nc(-c3ccc(C(N)=O)cc3)cn3ccnc23)cc1OC
[1]
  CL/F: 50.8 mL/min/kg
[2]
  ΔlogP: 1.4
[3]
  bioavailability: 22%

## COc1ccc(Nc2nc(-c3cccc(C(N)=O)c3)cn3ccnc23)cc1OC
[2]
  ΔlogP: 1.4

## COc1ccc(Nc2nc(-c3ccc4cn[nH]c4c3)cn3ccnc23)cc1OC
[1]
  CL/F: 35 mL/min/kg
[3]
  bioavailability: 36%

## c1ccc(Nc2nc(-c3ccc4cn[nH]c4c3)cn3ccnc23)cc1
[4]
  CLhep predicted at 3 µM: 8.17 mL/min/kg

## COc1cccc(Nc2nc(-c3ccc4cn[nH]c4c3)cn3ccnc23)c1
[5]
  EC50: 374 nM
[6]
  IC50: 8.5 nM

## CC1(O)CN(c2ccc(Nc3nc(-c4ccc5cn[nH]c5c4)cn4ccnc34)cc2)C1
[7]
  EC50: 1260 nM
[5]
  EC50: 80 nM
[6]
  IC50: 3.9 nM

## CC1(O)CCN(c2ccc(Nc3nc(-c4ccc5cn[nH]c5c4)cn4ccnc34)cc2)CC1
[4]
  CLhep predicted at 3 µM: 4.5 mL/min/kg

## O=S1(=O)CCN(c2ccc(Nc3nc(-c4ccc5cn[nH]c5c4)cn4ccnc34)cc2)CC1
[7]
  EC50: > 10000 nM
[4]
  CLhep predicted at 3 µM: 10 mL/min/kg
[5]
  EC50: 40 nM
[6]
  IC50: 2.1 nM

## c1cn2cc(-c3ccc4cn[nH]c4c3)nc(Nc3ccc(C4CCOCC4)cc3)c2n1
[7]
  EC50: > 10000 nM
[4]
  CLhep predicted at 3 µM: 2 mL/min/kg
[5]
  EC50: 2370 nM
[6]
  IC50: 3.8 nM

## CN(CCO)c1ccc(Nc2nc(-c3ccc4cn[nH]c4c3)cn3ccnc23)cc1
[7]
  EC50: 1090 nM
[5]
  EC50: 42 nM
[6]
  IC50: 7.6 nM

## c1cn2cc(-c3ccc4cn[nH]c4c3)nc(Nc3ccc(N4CCCOCC4)cc3)c2n1
[4]
  CLhep predicted at 3 µM: 5 mL/min/kg
[5]
  EC50: 73 nM
[6]
  IC50: 23.1 nM

## COc1cc(Nc2nc(-c3ccc4cn[nH]c4c3)cn3ccnc23)ccc1N1CCOCC1
[4]
  CLhep predicted at 3 µM: 12.5 mL/min/kg

## c1cn2cc(-c3ccc4cn[nH]c4c3)nc(Nc3ccc(N4CCOCC4)cc3)c2n1 [ENTOSPLETINIB]
[8]
  EC50: > 1000 nM
[9]
  IC50: > 10000 nM
[10]
  half-life at 3 µM: 35 min
[11]
  EC50: 1900 nM
[12]
  bioavailability: 53%
[13]
  IC50: > 10000 nM
[14]
  ED50: 3 mg/kg
[15]
  solubility: 2 µM (≈ 0.823 µg/mL)
[16]
  ED50: 3.9 mg/kg
[17]
  IC50: > 10000 nM
[18]
  half-life at 3 µM: 23.4 min
[19]
  fraction unbound at 24 h: 0.072
[20]
  Vd: 1.41 L/kg
[21]
  fraction unbound: 0.027
[22]
  fraction unbound at 24 h: 0.008
[23]
  ED50: 2.1 mg/kg
[24]
  bioavailability: 67%
[25]
  Papp B→A at 5 µM: 1.95 ×10⁻⁶ cm/s
[26]
  fraction unbound at 24 h: 0.029
[27]
  Papp A→B at 5 µM: 3.2 ×10⁻⁶ cm/s
[4]
  CLhep predicted at 3 µM: 4.83 mL/min/kg
[28]
  ED50: 1.2 mg/kg
[29]
  half-life at 3 µM: 98.6 min
[30]
  EC50: 453 nM
[31]
  clearance: 4.5 mL/min/kg
[32]
  EC50: > 1000 nM
[33]
  ED50: 2.8 mg/kg
[34]
  IC50: > 10000 nM
[35]
  solubility: 16 µM (≈ 6.58 µg/mL)
[36]
  clearance: 13.3 mL/min/kg
[37]
  EC50: 445 nM
[38]
  Vd: 0.52 L/kg

## COc1cc(Nc2ncc(F)c(Nc3ccc4c(n3)NC(=O)C(C)(C)O4)n2)cc(OC)c1OC [R-406]
[37]
  EC50: 46 nM

Source: ChEMBL document CHEMBL3259702, “Discovery of GS-9973, a selective and orally efficacious inhibitor of spleen tyrosine kinase” (J Med Chem, 2014)
